Assay results from patent US20120052142A1, “BIOLOGICALLY ACTIVE COMPOSITIONS FROM Schisandra chinensis FOR TREATING COLORECTAL CANCER” (Dr. Chang Naturals, LLC, priority 2010, published 2012).
Entries after “also recorded” stand apart in the source; their conditions may differ. Read-outs that look alike come from different tables or passages of the source.

Key:
[1] = tested on: human colorectal carcinoma cell line HT29; experiment: MTS cell viability assay, HT-29; type: cell-based
Excerpt: The comestible use of the fruit products and its potential anticancer properties prompted the current investigation as to whether the active constituents could be used to treat colorectal cancer. The robust MTS cell viability assay with the p53-mutant human colon HT-29 cell line served as an assay-guided screening tool for the purification of the active principles of the fruit extract (see further description in the Example section).
Erythroleukemia K562, human colon HT-29 and breast MCF-7 cancer cell lines were obtained from the American Type Culture Collection (Manassas, Va., USA). All cells were maintained in Dulbecco's modified Eagle's medium (DMEM) supplemented with 10% fetal bovine serum, penicillin (100 U ml^−1) and streptomycin (100 U ml^−1). Cells were incubated at 37° C. in a 5% CO2 humidified atmosphere.
Cells were seeded at a density of 1.5×10^4 cells/well on a 96-well plate. When the cells reached 60 to 70% confluency, the growth medium was aspirated and the wells were rinsed with pre-warmed PBS. Test compounds at various concentrations or 1% DMSO (vehicle control) were then added and the plates were incubated for 72 h. After incubation, 40 μL of a solution of CellTiter 96 Aqueous One Solution (Promega, Madison, Wis., USA) containing MTS [3-(4,5-dimethylthiazol-2-yl)-5-(3-carboxymethoxyphenyl)-2-(4-sulfophenyl)-2H-tetrazolium)] and an electron coupling reagent (phenazine ethosulfate) were added to each well with an auto-repeat pipetor. The plates were incubated for 3 hours during which time the reagent was bio-reduced into a colored formazan product by the intracellular dehydrogenase enzymes of metabolically active cells. The quantity of formazan produced is directly proportional to the number of living cells in the cultures. The absorbance (A) was measured at 490 nm (reference at 690 nm) on a PowerWave 200 microplate reader (Bio-Tek Instruments). The results were expressed as percent cell viability, calculated for each drug concentration using the formula:
% Viability=(A treated group/A control group)×100%.
(100% viability was represented by samples with DMSO vehicle control).
The half-maximal inhibitory concentration, IC50, values were obtained from the sigmoidal curve by plotting the percentage viability of cells against the drug concentration using Psi-Plot version 9, Poly Software International (Pearl River, N.Y., USA).

colon cell line LoVo = settings: Planta Medica 2010: 76:1672-1677; cited from earlier work
hepatic carcinoma = settings: especially in high concentrations; Molecular Medicine Reports 2:725-732, 2009; cited from earlier work
[2] = HT29, MTS cell viability, 72 h, average of two independent experiments in triplicate
[3] = HT-29, from dose-response curves (FIG. 4, FIG. 5), read-out: concentration inhibiting cell growth by 50% (IC50), molar basis

SMILES	Activity IC50 [1, 2]	IC50 [1, 3]	IC50 ([1]; Homo sapiens, HT-29, HT29, MTS cell viability, 72 h, average of two independent experiments in triplicate, read-out: Activity IC50)	IC50 ([1]; Homo sapiens, HT-29, from dose-response curves (FIG. 4, FIG. 5), read-out: concentration inhibiting cell growth by 50% (IC50), molar basis)	anti-proliferative activity against HT-29 (in words) ([1]; HT-29)	anti-proliferative activity against HT-29 (in words) ([1]; HT-29, listed as schisandrin)	activity against LoVo (in words) (colon cell line LoVo)	apoptosis induction in hepatic carcinoma (in words) (hepatic carcinoma)
COc1cc2c(c(OC)c1OC)-c1c(cc3c(c1OC)OCO3)C[C@H](C)[C@](C)(O)C2 [Gomisin A, gomisin A]	300 µg/mL	716 µM						
C/C=C(/C)C(=O)Oc1c(OC)c(OC)cc2c1-c1c(cc(OC)c(OC)c1OC)C[C@](C)(O)[C@@H](C)C2 [Angeloylgomisin H, angeloylgomisin H]	348 µg/mL	696 µM			moderate activity			

Continued, in another order:

Activity IC50 [1, 2]	IC50 [1, 3]	IC50 ([1]; Homo sapiens, HT-29, HT29, MTS cell viability, 72 h, average of two independent experiments in triplicate, read-out: Activity IC50)	IC50 ([1]; Homo sapiens, HT-29, from dose-response curves (FIG. 4, FIG. 5), read-out: concentration inhibiting cell growth by 50% (IC50), molar basis)	SMILES	anti-proliferative activity against HT-29 (in words) ([1]; HT-29)	anti-proliferative activity against HT-29 (in words) ([1]; HT-29, listed as schisandrin)	activity against LoVo (in words) (colon cell line LoVo)	apoptosis induction in hepatic carcinoma (in words) (hepatic carcinoma)
>1000 µg/mL				COc1cc2c(c(OC)c1OC)-c1c(cc(OC)c(OC)c1OC)C[C@](C)(O)[C@@H](C)C2 [Schisandrin, schisandrin]	devoid of detectable biological activity	does not show any activity; also recorded: inactive		
17 µg/mL	43 µM			COc1cc2c(c(OC)c1OC)-c1c(cc3c(c1OC)OCO3)C[C@H](C)[C@H](C)C2 [Gomisin N, gomisin N]			do not find Gomisin N to be active	induces high apoptotic levels
		140 µg/mL	336 µM	COc1cc2c(c(OC)c1OC)-c1c(cc(OC)c(OC)c1OC)C[C@H](C)[C@@H](C)C2 [Deoxyschisandrin, deoxyschisandrin]				
